Entries after “also recorded” stand apart in the source; their conditions may differ.
How the values were obtained:
[1] = test system: Japanese quail testis (gonadal growth); assay: IOP infusion, testicular growth under long-day condition; format: in vivo, Japanese quail (Coturnix coturnix japonica); details: long-day condition (p<0.05)
Method: (§1) To assess directly whether T3 mediates photoperiodic response of gonads, the inventors studied the effect of intracerebroventricular (i.c.v.) infusion of T3 on gonadal growth. Vehicle and several doses of T3 and T4 were infused to third ventricle by osmotic mini pump and testicular size was measured before and after the infusion. […] Therefore, the inventors furthermore examined the effect of IOP infusion under long-day condition (FIG. 10b).

[2] = test system: Japanese quail gonadotropin release and gonadal growth; details: cited from earlier work; for photoperiodically induced gonadotropin secretion and gonadal growth: peripheral injection of pharmacological dose
[3] = test system: Japanese quail testis (gonadal growth); assay: intracerebroventricular infusion by osmotic mini pump, testicular growth under short-day condition; format: in vivo, Japanese quail (Coturnix coturnix japonica); details: for testicular growth: i.c.v. infusion to third ventricle, several doses, short-day condition (light 8 hrs, dark 16 hrs), male Japanese quail
Method: as §1

[4] = cited from earlier work

Compound	testicular growth [1]	photoperiodically induced gonadotropin secretion and gonadal growth [2]	relative effectiveness to mimic gonadotropin release ([2]; peripheral injection)	testicular growth [3]	fraction of T4 converted to T3 in the blood [4]	fraction of T4 converted to reverse T3 (RT3) in the blood [4] [%]	testicular growth at the largest dose ([3]; i.c.v. infusion, largest dose, short-day condition)	dose giving the greatest effect ([3]; intracerebroventricular administration to Japanese quail) [ng per day]
CCC(Cc1c(I)cc(I)c(N)c1I)C(=O)O (stereo not shown) [IOP, lopanoic acid]	can reduce testicular growth; also recorded: reduces testicular growth							
N[C@@H](Cc1cc(I)c(Oc2cc(I)c(O)c(I)c2)c(I)c1)C(=O)O [T4, Thyroxine]		can mimic	more effective than T3	little effect	about ⅓	~45		
N[C@@H](Cc1cc(I)c(Oc2ccc(O)c(I)c2)c(I)c1)C(=O)O [T3, 3,5,3′-triiodothyronine]		can mimic		mimics testicular growth with dose dependent manner			testicular growth was not observed	0.3

— patent US20040242525A1, “Method for promoting gonadal growth in an animal” (Nagoya University, priority 2003, published 2004)
